# Experimental data as given in ChEMBL document CHEMBL1671637, “Development, stability, and molecular mechanisms of macrolide resistance in Campylobacter jejuni” (2008).
# Assays:
# Campylobacter jejuni [1] = assay: Antimicrobial activity against Campylobacter jejuni JL289 harboring 23S rRNA A2074C mutant selected at 4 to 16 times MIC after 3 to 4 days by agar dilution method; format: functional
# Campylobacter jejuni [2] = assay: Antimicrobial activity against Campylobacter jejuni DC2 infected in 15 days old chicken by agar dilution method in presence of feed with tylosin; format: functional
# Campylobacter jejuni [3] = assay: Antimicrobial activity against Campylobacter jejuni JL303 harboring protein L22 with insertion of amino acid TSH at position 98 selected at 4 to 16 times MIC after 3 to 4 days by agar dilution method; format: functional
# Campylobacter jejuni [4] = assay: Antimicrobial activity against Campylobacter jejuni JL284 selected at 4 to 16 times MIC after 3 to 4 days by agar dilution method; format: functional
# Campylobacter jejuni [5] = assay: Antimicrobial activity against Campylobacter jejuni DC7 harboring protein L4 G74D mutant by agar dilution method; format: functional
# Campylobacter jejuni [6] = assay: Antimicrobial activity against Campylobacter jejuni JL278 selected at 4 to 16 times MIC after 3 to 4 days by agar dilution method; format: functional
# Campylobacter jejuni [7] = assay: Antimicrobial activity against Campylobacter jejuni harboring mutation in cmeB by agar dilution method relative to wild type Campylobacter jejuni; format: functional
# Campylobacter jejuni [8] = assay: Antimicrobial activity against Campylobacter jejuni DC5 harboring protein L4 G74D mutant by agar dilution method; format: functional
# Campylobacter jejuni [9] = assay: Antimicrobial activity against Campylobacter jejuni DC38 harboring protein L4 G74D mutant by agar dilution method; format: functional
# Campylobacter jejuni [10] = assay: Antimicrobial activity against Campylobacter jejuni DC23 harboring protein L4 G74D mutant by agar dilution method; format: functional
# Campylobacter jejuni [11] = assay: Antimicrobial activity against Campylobacter jejuni DC6 infected in 3 days old chicken by agar dilution method; format: functional
# Campylobacter jejuni [12] = assay: Antimicrobial activity against Campylobacter jejuni JL298 selected at 4 to 16 times MIC after 3 to 4 days by agar dilution method; format: functional
# Campylobacter jejuni [13] = assay: Antimicrobial activity against Campylobacter jejuni DC8 harboring protein L4 G74D mutant by agar dilution method; format: functional
# Campylobacter jejuni [14] = assay: Antimicrobial activity against Campylobacter jejuni JL292 selected at 4 to 16 times MIC after 3 to 4 days by agar dilution method; format: functional
# Campylobacter jejuni [15] = assay: Antimicrobial activity against Campylobacter jejuni JL296 selected at 4 to 16 times MIC after 3 to 4 days by agar dilution method; format: functional
# Campylobacter jejuni [16] = assay: Antimicrobial activity against Campylobacter jejuni JL304 harboring protein L22 with insertion of amino acid TSH at position 98 selected at 4 to 16 times MIC after 3 to 4 days by agar dilution method; format: functional
# Campylobacter jejuni [17] = assay: Antimicrobial activity against Campylobacter jejuni JL290 harboring protein L22 with insertion of amino acid TSH at position 98 selected at 8 ug/ml after 3 to 4 days by agar dilution method; format: functional
# Campylobacter jejuni [18] = assay: Antimicrobial activity against Campylobacter jejuni DC39 harboring protein L4 G74D and G57V mutant by agar dilution method; format: functional
# Campylobacter jejuni [19] = assay: Antimicrobial activity against Campylobacter jejuni NCTC 11168 by agar dilution method; format: functional
# Campylobacter jejuni [20] = assay: Antimicrobial activity against Campylobacter jejuni DC14 harboring protein L4 G57D mutant by agar dilution method
# Campylobacter jejuni [21] = assay: Antimicrobial activity against Campylobacter jejuni DC33 harboring 23S rRNA A2074G mutant by agar dilution method; format: functional
# Campylobacter jejuni [22] = assay: Antimicrobial activity against Campylobacter jejuni DC37 harboring protein L4 G74D mutant by agar dilution method; format: functional
# Campylobacter jejuni [23] = assay: Antimicrobial activity against Campylobacter jejuni JL283 selected at 4 to 16 times MIC after 3 to 4 days by agar dilution method; format: functional
# Campylobacter jejuni [24] = assay: Antimicrobial activity against Campylobacter jejuni DC29 by agar dilution method; format: functional
# Campylobacter jejuni [25] = assay: Antimicrobial activity against Campylobacter jejuni JL291 harboring protein L22 with insertion of amino acid TSH at position 98 selected at 4 to 16 times MIC after 3 to 4 days by agar dilution method; format: functional
# Campylobacter jejuni [26] = assay: Antimicrobial activity against Campylobacter jejuni DC25 harboring protein L4 G74D mutant by agar dilution method; format: functional
# Campylobacter jejuni [27] = assay: Antimicrobial activity against Campylobacter jejuni JL305 harboring protein L22 with insertion of amino acid TSH at position 98 selected at 4 to 16 times MIC after 3 to 4 days by agar dilution method; format: functional
# Campylobacter jejuni [28] = assay: Antimicrobial activity against Campylobacter jejuni DC19 harboring protein L4 G57D mutant by agar dilution method
# Campylobacter jejuni [29] = assay: Antimicrobial activity against Campylobacter jejuni JL288 harboring 23S rRNA A2074C mutant selected at 4 to 16 times MIC after 3 to 4 days by agar dilution method; format: functional
# Campylobacter jejuni [30] = assay: Antimicrobial activity against tylosin pre-exposed compound-resistant Campylobacter jejuni; format: functional
# Campylobacter jejuni [31] = assay: Antimicrobial activity against Campylobacter jejuni DC4 by agar dilution method; format: functional
# Campylobacter jejuni [32] = assay: Antimicrobial activity against Campylobacter jejuni JL285 selected at 4 to 16 times MIC after 3 to 4 days by agar dilution method; format: functional
# Campylobacter jejuni [33] = assay: Antimicrobial activity against Campylobacter jejuni JL297 selected at 4 to 16 times MIC after 3 to 4 days by agar dilution method; format: functional
# Campylobacter jejuni [34] = assay: Antimicrobial activity against Campylobacter jejuni DC15 harboring protein L4 G74D mutant by agar dilution method; format: functional
# Campylobacter jejuni [35] = assay: Antimicrobial activity against Campylobacter jejuni DC32 harboring 23S rRNA A2074G mutant by agar dilution method; format: functional
# Campylobacter jejuni [36] = assay: Antimicrobial activity against Campylobacter jejuni JL286 selected at 4 to 16 times MIC after 3 to 4 days by agar dilution method; format: functional
# Campylobacter jejuni [37] = assay: Antimicrobial activity against compound-resistant Campylobacter jejuni; format: functional
# Campylobacter jejuni [38] = assay: Antimicrobial activity against Campylobacter jejuni DC9 harboring 23S rRNA A2074G mutant by agar dilution method; format: functional
# Campylobacter jejuni [39] = assay: Antimicrobial activity against Campylobacter jejuni DC26 harboring protein L4 G74D mutant by agar dilution method; format: functional
structure (smiles),measurement,setting,value
CC[C@H]1OC(=O)[C@H](C)[C@@H](O[C@H]2C[C@@](C)(OC)[C@@H](O)[C@H](C)O2)[C@H](C)[C@@H](O[C@@H]2O[C@H](C)C[C@H](N(C)C)[C@H]2O)[C@](C)(O)C[C@@H](C)C(=O)[C@H](C)[C@@H](O)[C@]1(C)O [ERYTHROMYCIN],MIC,Campylobacter jejuni [1],> 512 µg/mL
same,MIC,Campylobacter jejuni [2],32 µg/mL
same,MIC,Campylobacter jejuni [3],256 µg/mL
same,MIC,Campylobacter jejuni [4],128 µg/mL
same,MIC,Campylobacter jejuni [5],8 µg/mL
same,MIC,Campylobacter jejuni [6],8 µg/mL
same,fold change (FC),Campylobacter jejuni [7],8
same,MIC,Campylobacter jejuni [8],8 µg/mL
same,MIC,Campylobacter jejuni [9],128 µg/mL
same,MIC,Campylobacter jejuni [10],64 µg/mL
same,MIC,Campylobacter jejuni [11],> 512 µg/mL
same,MIC,Campylobacter jejuni [12],8 µg/mL
same,MIC,Campylobacter jejuni [13],32 µg/mL
same,MIC,Campylobacter jejuni [14],8 µg/mL
same,MIC,Campylobacter jejuni [15],8 µg/mL
same,MIC,Campylobacter jejuni [16],256 µg/mL
same,MIC,Campylobacter jejuni [17],32 µg/mL
same,MIC,Campylobacter jejuni [18],256 µg/mL
same,MIC,Campylobacter jejuni [19],1 µg/mL
same,MIC,Campylobacter jejuni [20],32 µg/mL
same,MIC,Campylobacter jejuni [21],> 512 µg/mL
same,MIC,Campylobacter jejuni [22],128 µg/mL
same,MIC,Campylobacter jejuni [23],64 µg/mL
same,MIC,Campylobacter jejuni [24],4 µg/mL
same,MIC,Campylobacter jejuni [25],32 µg/mL
same,MIC,Campylobacter jejuni [26],64 µg/mL
same,MIC,Campylobacter jejuni [27],256 µg/mL
same,MIC,Campylobacter jejuni [28],16 µg/mL
same,MIC,Campylobacter jejuni [29],> 512 µg/mL
same,MIC,Campylobacter jejuni [30],> 512 µg/mL
same,MIC,Campylobacter jejuni [31],8 µg/mL
same,MIC,Campylobacter jejuni [32],128 µg/mL
same,MIC,Campylobacter jejuni [33],8 µg/mL
same,MIC,Campylobacter jejuni [34],32 µg/mL
same,MIC,Campylobacter jejuni [35],> 512 µg/mL
same,MIC,Campylobacter jejuni [36],128 µg/mL
same,MIC,Campylobacter jejuni [37],8 µg/mL
same,MIC,Campylobacter jejuni [38],> 512 µg/mL
same,MIC,Campylobacter jejuni [39],64 µg/mL
